Test results taken from patent US10000558B2, “Use of annexin A3 as a diagnostic and prognostic biomarker and therapeutic target for treating hepatocellular carcinoma” (The University of Hong Kong, priority 2013, dated 2018).
“And” between values parts separate entries of the source, which are not always exact repeats. Equal entries are not always repeated.

Key:
Huh7 cells = assay: Apoptosis analysis by Annexin V-PI flow cytometry; type: cell-based, human; settings: for 5-fluorouracil-induced apoptosis: 5-fluorouracil 150 µg/ml for 48 hrs; for STS-induced apoptosis: STS 1 μg/ml for 6 hrs; for Cisplatin-induced apoptosis: cisplatin 5 μg/ml for 48 hrs
Protocol: Cells were treated with cisplatin (5 μg/ml) or 5-fluorouracil ([…]) for 48 hrs, apoptosis inducer staurosporin (STS, 1 μg/ml) for 6 hrs. Cells would then be subsequently harvested and stained in binding buffer, propidium iodide (PI) and FITC-conjugated Annexin V as provided by the Annexin-V FLUOS Staining Kit (Roche Diagnostics) according to manufacturer's instructions. Analysis was determined by a FACS Canto II (BD Biosciences) and FlowJo software (Tree Star, Inc.).
The effect of ANXA3 on resistance to apoptosis and chemotherapy was investigated by Annexin V-PI staining followed by flow cytometry analysis. To investigate whether ANXA3 expression in HCC confers enhanced resistance to chemotherapy and apoptosis, Huh7 cells with or without ANXA3 repressed were treated with the apoptosis inducer staurosporin (STS) or chemotherapeutic reagents, 5-fluorouracil (5-FU) or cisplatin, in vitro and analyzed for apoptotic/necrotic cells by flow cytometry. […] Upon stable ANXA3 knockdown in Huh7 and PLC8024 HCC cells, HCC cells became less resistant to the apoptosis inducer, staurosporin (STS) and chemotherapy, 5-fluorouracil and cisplatin, resulting in a significant increase in apoptotic/necrotic cells.

[1] = tested on: HCC Huh7 cells or HCC primary cells; assay: Subcutaneous HCC xenograft treatment in NOD-SCID mice; type: in vivo
Protocol: Immunodeficient NOD-SCID mice transplanted subcutaneously with HCC Huh7 cells or HCC primary cells were injected with PBS, mouse IgG control ANXA3 mAb, cisplatin or a combination of ANXA3 mAb and cisplatin over a period of 3 weeks (FIGS. 4A, B and C).

[2] = Huh7 ANXA3 repressed clones (two clones, values not assigned)

SMILES: O=c1[nH]cc(F)c(=O)[nH]1 [5-fluorouracil]
- 5-fluorouracil-induced apoptosis (Huh7 cells; [2]): 39.4% and 55.51%
- 5-fluorouracil-induced apoptosis (Huh7 cells; Huh7 control (NTC) cells): 30.1%

SMILES: CN[C@@H]1C[C@H]2O[C@@](C)([C@@H]1OC)n1c3ccccc3c3c4c(c5c6ccccc6n2c5c31)C(=O)NC4 [STS, staurosporin]
- STS-induced apoptosis (Huh7 cells; [2]): 53.58% and 52.3%
- STS-induced apoptosis (Huh7 cells; Huh7 control (NTC) cells): 43.72%

SMILES: N.N.[Cl][Pt][Cl] [cisplatin, reference compound]
- Cisplatin-induced apoptosis (Huh7 cells; [2]): 38.4% and 41.1%
- Cisplatin-induced apoptosis (Huh7 cells; Huh7 control (NTC) cells): 26.73%
- tumor formation after serial transplantation of residual tumor into secondary mouse recipients ([1]; FIG. 4D): resulted in tumor formation and recurrence
- tumor growth / tumor volume ([1]; NOD-SCID mice, subcutaneous transplant, injections over 3 weeks, FIG. 4A, B): marked reduction in tumor volume
- CD133+ liver CSC subset in tumor ([1]; flow cytometric analysis of residual tumors, FIG. 4C): enriched
